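Method: 48-hour compound exposure of cells in 96-well plates, five concentrations, linear interpolation of endpoints. At the TGI there is no net growth.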 Where a SMILES comes first, the peptide text is derived from it. [ ]: non-standard residue; d: D form. The star is where a group is joined. ξ: configuration not given here. ξF = NC(Cc1ccccc1)C(=O)O; Cbz = O=C(OCc1ccccc1)*
Experiments:
Assay in all cases: NCI-60 cell line screen, 48 h
786-0 renal = tested on: 786-0 renal
A498 renal = tested on: A498 renal
A549 NSCLC = tested on: A549 NSCLC
ACHN renal = tested on: ACHN renal
BT-549 breast = tested on: BT-549 breast
CAKI-1 renal = tested on: CAKI-1 renal
CCRF-CEM leukemia = tested on: CCRF-CEM leukemia
COLO 205 colon = tested on: COLO 205 colon
EKVX NSCLC = tested on: EKVX NSCLC
HCC-2998 colon = tested on: HCC-2998 colon
HCT-116 colon = tested on: HCT-116 colon
HCT-15 colon = tested on: HCT-15 colon
HL-60(TB) leukemia = tested on: HL-60(TB) leukemia
HOP-62 NSCLC = tested on: HOP-62 NSCLC
HOP-92 NSCLC = tested on: HOP-92 NSCLC
HS 578T breast = tested on: HS 578T breast
HT29 colon = tested on: HT29 colon
IGROV1 ovarian = tested on: IGROV1 ovarian
K-562 leukemia = tested on: K-562 leukemia
KM12 colon = tested on: KM12 colon
LOX IMVI melanoma = tested on: LOX IMVI melanoma
M14 melanoma = tested on: M14 melanoma
MALME-3M melanoma = tested on: MALME-3M melanoma
MDA-MB-231 breast = tested on: MDA-MB-231 breast
MDA-MB-435 = tested on: MDA-MB-435
MDA-N = tested on: MDA-N
MOLT-4 leukemia = tested on: MOLT-4 leukemia
NCI-H226 lung = tested on: NCI-H226 lung
NCI-H23 lung = tested on: NCI-H23 lung
NCI-H460 lung = tested on: NCI-H460 lung
NCI-H522 lung = tested on: NCI-H522 lung
NCI/ADR-RES ovarian = tested on: NCI/ADR-RES ovarian
OVCAR-3 ovarian = tested on: OVCAR-3 ovarian
OVCAR-4 ovarian = tested on: OVCAR-4 ovarian
OVCAR-5 ovarian = tested on: OVCAR-5 ovarian
OVCAR-8 ovarian = tested on: OVCAR-8 ovarian
PC-3 prostate = tested on: PC-3 prostate
RPMI-8226 leukemia = tested on: RPMI-8226 leukemia
RXF 393 renal = tested on: RXF 393 renal
SF-268 CNS = tested on: SF-268 CNS
SF-295 CNS = tested on: SF-295 CNS
SF-539 CNS = tested on: SF-539 CNS
SK-MEL-2 melanoma = tested on: SK-MEL-2 melanoma
SK-MEL-28 melanoma = tested on: SK-MEL-28 melanoma
SK-MEL-5 melanoma = tested on: SK-MEL-5 melanoma
SK-OV-3 ovarian = tested on: SK-OV-3 ovarian
SN12C renal = tested on: SN12C renal
SNB-19 CNS = tested on: SNB-19 CNS
SNB-75 CNS = tested on: SNB-75 CNS
SR leukemia = tested on: SR leukemia
SW-620 colon = tested on: SW-620 colon
T-47D breast = tested on: T-47D breast
TK-10 renal = tested on: TK-10 renal
U251 CNS = tested on: U251 CNS
UACC-257 melanoma = tested on: UACC-257 melanoma
UACC-62 melanoma = tested on: UACC-62 melanoma
UO-31 renal = tested on: UO-31 renal
DU-145 prostate = tested on: DU-145 prostate
MCF7 breast = tested on: MCF7 breast

Measured: TGI

O=c1cc(Nc2cccc(O)c2)[nH]c(=O)[nH]1
not listed: DU-145 prostate | MCF7 breast
> 100 µM: all other assays above

CCOC(=O)CNC(=O)C(Cc1ccccc1)NC(=O)OCc1ccccc1 (stereo unspecified) (Cbz-[ξF]-Gly-OEt)
not listed: CAKI-1 renal | NCI-H522 lung | OVCAR-4 ovarian | RXF 393 renal | SF-539 CNS | SK-MEL-2 melanoma | SK-MEL-28 melanoma | TK-10 renal | UACC-257 melanoma | UACC-62 melanoma
> 100 µM: all other assays above

— PubChem BioAssay (NCI)
